Experimental data: ChEMBL document CHEMBL3860091, “Synthesis and activity of newly designed aroxyalkyl or aroxyethoxyethyl derivatives of piperazine on the cardiovascular and the central nervous systems” (Bioorg Med Chem Lett, 2016)

Legend:
[1] = Antidepressant-like activity in mouse assessed as immobility time at 5 mg/kg, ip by tail suspension test (reference value: 154.2 +/- 10.2 sec); type: functional, organism-based
[2] = Antidepressant-like activity in mouse assessed as immobility time at 10 mg/kg, ip by tail suspension test (reference value: 154.2 +/- 10.2 sec); type: functional, organism-based
Rattus norvegicus = organism: Rattus norvegicus; experiment: Selectivity ratio of Ki for rat brain cerebral cortex alpha2 adrenergic receptor to Ki for rat brain cerebral cortex alpha1 adrenergic receptor
[3] = target: T1, Adrenergic receptor alpha-1 (Rattus norvegicus, UniProt P15823+P23944+P43140); experiment: Displacement of [3H]prazosin from alpha1 adrenergic receptor in rat brain cerebral cortex; type: tissue-based
T1 sequence (P15823 whole entry): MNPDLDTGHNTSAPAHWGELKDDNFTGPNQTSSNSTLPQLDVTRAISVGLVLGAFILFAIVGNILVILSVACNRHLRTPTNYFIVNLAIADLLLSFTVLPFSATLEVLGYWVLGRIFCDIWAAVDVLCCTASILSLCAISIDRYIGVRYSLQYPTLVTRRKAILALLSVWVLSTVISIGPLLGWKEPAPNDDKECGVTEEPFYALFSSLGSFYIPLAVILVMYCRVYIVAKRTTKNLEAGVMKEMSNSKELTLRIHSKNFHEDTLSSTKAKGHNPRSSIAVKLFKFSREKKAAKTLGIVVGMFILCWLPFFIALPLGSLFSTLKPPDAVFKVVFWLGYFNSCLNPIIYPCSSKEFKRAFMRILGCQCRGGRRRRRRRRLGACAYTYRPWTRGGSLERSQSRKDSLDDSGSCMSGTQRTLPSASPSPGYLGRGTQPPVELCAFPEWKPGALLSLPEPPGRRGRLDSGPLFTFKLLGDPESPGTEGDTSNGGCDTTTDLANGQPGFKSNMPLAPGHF
T1 sequence (P23944 whole entry): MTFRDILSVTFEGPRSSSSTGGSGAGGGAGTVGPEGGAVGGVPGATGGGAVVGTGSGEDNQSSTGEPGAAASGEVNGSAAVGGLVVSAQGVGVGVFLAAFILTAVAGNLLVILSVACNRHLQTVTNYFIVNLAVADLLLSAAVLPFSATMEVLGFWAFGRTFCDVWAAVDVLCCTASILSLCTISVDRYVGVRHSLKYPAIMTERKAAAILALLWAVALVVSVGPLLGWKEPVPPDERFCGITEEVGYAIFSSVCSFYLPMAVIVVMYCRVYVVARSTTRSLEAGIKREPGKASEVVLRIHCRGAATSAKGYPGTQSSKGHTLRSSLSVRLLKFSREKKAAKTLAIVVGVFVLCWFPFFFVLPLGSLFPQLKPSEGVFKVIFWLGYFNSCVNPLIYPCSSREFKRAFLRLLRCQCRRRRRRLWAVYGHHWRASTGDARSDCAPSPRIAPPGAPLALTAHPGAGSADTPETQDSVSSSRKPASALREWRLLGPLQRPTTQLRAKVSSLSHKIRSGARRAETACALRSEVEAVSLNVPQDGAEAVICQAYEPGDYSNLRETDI
T1 sequence (P43140 whole entry): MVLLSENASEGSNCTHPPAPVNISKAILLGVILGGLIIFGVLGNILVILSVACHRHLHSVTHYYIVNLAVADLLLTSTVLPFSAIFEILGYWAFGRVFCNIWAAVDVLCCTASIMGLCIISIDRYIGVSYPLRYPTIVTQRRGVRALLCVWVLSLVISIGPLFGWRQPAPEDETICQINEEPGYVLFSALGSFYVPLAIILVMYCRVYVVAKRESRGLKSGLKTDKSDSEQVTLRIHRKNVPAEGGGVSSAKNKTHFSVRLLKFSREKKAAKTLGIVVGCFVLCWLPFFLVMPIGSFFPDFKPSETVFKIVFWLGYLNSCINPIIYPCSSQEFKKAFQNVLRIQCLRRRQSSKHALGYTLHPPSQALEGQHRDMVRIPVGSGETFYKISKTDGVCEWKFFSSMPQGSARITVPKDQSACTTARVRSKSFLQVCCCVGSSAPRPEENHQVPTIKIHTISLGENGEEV

[4] = target: T1, Adrenergic receptor alpha-1; experiment: Antagonist activity at alpha1 adrenergic receptor in rat aorta assessed as inhibition of phenylephrine-induced aortic contraction

Ratio Ki (Rattus norvegicus)	Ki [3]	pA2 [4]	SMILES	TIME [1]	TIME [2]
			CN(C)CCCN1c2ccccc2CCc2ccccc21	0.0363 h	0.0283 h
13.3	2.8 nM	8.534	COc1ccccc1N1CCN(CCCOc2cccc(C)c2C)CC1.Cl		
142	2.4 nM	8.807	COc1ccccc1N1CCN(CCCOc2c(C)cccc2C)CC1.Cl		
